Laboratory results as given in patent US20210338679A1, “NOVEL USES” (INTRA-CELLULAR THERAPIES, INC., priority 2018, published 2021).

Assays:
[1] = test system: leukocytes, neutrophils, and macrophages (M1/M2 macrophages); experiment: Mouse zymosan pleurisy model, flow cytometry of infiltrating cells; assay type: in vivo, mice; details: for inflammatory resolution (shift from M1 to M2): zymosan sterile inflammation, FIGS. 1-9
Description: (§1) Zymosan is injected into the pleural cavities of mice in order to induce sterile inflammation. Infiltration of leukocytes, neutrophils, and macrophages are monitored at days 3 and 7 following injection. Detection of various cell types are identified according to the gating strategy outlined in Table 1 below.
In this model, injection of zymosan causes the recruitment of various waves of leukocytes, which are observed and recorded. Exudate volume increases to a maximum over a period of 24 hours, and neutrophils increase within 4 hours and reach a maximum by 48 hours. Lymphocytes of the adaptive immune system enter at a later stage, after three days, which is signaled by macrophages presenting antigens. A resolution phase is well documented in this model and is accompanied by decreased total macrophage number and transition into M2 phenotype.
In the studies, Compounds 1 and 2 were administered to the test subjects, and the effect the compounds had on infiltration of leukocytes, neutrophils, and macrophages was observed.
Similar tests were conducted with Compound 2, the results of which are illustrated in FIGS. 8 and 9. […] An additional test was carried out according to the same method. Mice were injected intraperitoneally with 1 mg Zymosan followed by 10 mg/kg Compound 1. Macrophage levels were recorded at injection, then at 4, 8, 16, 24, 48 and 72 hours post-injection.

[2] = test system: metabolites of AA and DHA; experiment: Detection of arachidonic acid and docosahexaenoic acid metabolites in mouse zymosan pleurisy model; assay type: in vivo, mice
Description: (§2) Zymosan was injected into the pleural cavities of mice in order to induce sterile inflammation by the methods discussed in Example 1. Compound 1 was administered to test subjects to observe the effects on a variety of inflammatory biomarkers. Results were recorded after 4 hours. […] IFNγ, IL-1β, MCP1-β and TNF-α decreased following administration of Compound 1 in all serum and plasma samples.
Lipids are known to be involved in regulation of a multitude of cellular responses including cell growth and death, and inflammation/infection, via receptor-mediated pathways. Various lipids are involved in both the initiation and resolution of inflammation. Pro-resolving lipid mediators are produced naturally in the body from unsaturated fatty acids, such as arachidonic acid (AA) and docosahexaenoic acid (DHA). Further studies were carried out to identify metabolites of AA and DHA, which are summarized below in Tables 2 and 3.

BV2 cells = experiment: Microglia chemotaxis assay; assay type: cell-based; details: 100 μM ADP, 4 hours; FIG. 10
Description: BV2 cells were added to upper chamber of a 5 μm pore Transwell 96-well plate over a reservoir containing 100 μM ADP and incubated at 37° C. with 5% CO2 for 4 hours. After the incubation cells were harvested with pre-warmed cell detachment solution for 30 minutes in the same incubation conditions. 75 μl of this cell detachment solution was combined with 75 μl of culture medium in a new 96 well plate compatible with a fluorescence reader. Cell number in bottom chamber was determined by adding CyQuant® GR dye and reading in the Envision fluorescence reader at 480 nm EX/520 nm EM.

[3] = test system: cytokine markers (IFNγ, IL-1β, MCP1-β, TNF-α, IL10, MCP-1/CCL2); experiment: Inflammatory cytokine biomarkers in mouse zymosan pleurisy model; assay type: in vivo, mice
Description: as §1
as §2, with “biomarkers.” for “biomarkers. Results were recorded after 4 hours.”

[4] = test system: leukocytes, neutrophils, and macrophages (M1/M2 macrophages); experiment: Mouse zymosan pleurisy model, flow cytometry of infiltrating cells; assay type: in vivo, mice; details: 1 mg Zymosan i.p. followed by 10 mg/kg; day 7; FIG. 11A
[5] = arachidonic acid metabolite, compared with controls
[6] = docosahexaenoic acid metabolite
[7] = after 4 hours, serum and plasma samples

## CN1C(=O)c2c(nn(Cc3ccc(-c4ccccn4)cc3)c2Nc2ccccc2)N2C1=N[C@@H]1CCC[C@@H]12 [Compound 2]
[1]; 3 mg/kg, day 7, FIG. 8
  CD38+ macrophages: significant drop
[1]; 3 mg/kg, day 7, FIG. 9
  Erg2+ macrophages: sharp and significant increase
[1]
  inflammatory resolution (shift from M1 to M2): enhanced inflammatory resolution

## C[C@@H]1C[C@H]2[C@@H]3CCC4=CC(=O)C=C[C@]4(C)[C@@]3(F)[C@@H](O)C[C@]2(C)[C@@]1(O)C(=O)CO [Dexamethasone, reference compound]
[1]; 2 mg/kg, day 3 or 7, FIG. 8
  number of CD38+ macrophage populations: no significant effect
[1]; 2 mg/kg, day 3 or 7, FIG. 9
  number of Erg2+ macrophage populations: no significant effect

## CN1C(=O)c2c(nn(Cc3ccc(-c4cccc(F)n4)cc3)c2Nc2ccccc2)N2C1=N[C@@H]1CCC[C@@H]12 [Compound 1]
[2]; [5]
  5-HETE (intermediate mediator linked to resolution): No change
  12-HETE (intermediate mediator linked to resolution): Increase
  15-HETE (intermediate mediator linked to resolution): Increase
  LTB4 (pro-inflammatory mediator): No change
  PGE2 (pro-inflammatory mediator): Decrease
  TXB2 (pro-inflammatory mediator): Decrease
[2]; [6]
  14-HDOHE (resolution mediator): Increase
  17-HDOHE (intermediate mediator linked to resolution): Increase
  RVD5 (intermediate mediator linked to resolution): Increase
BV2 cells
  motility of the BV2 cells across the membrane: marked dampening effect
[1]; 1 mg Zymosan i.p. followed by 10 mg/kg, 4 hours, FIG. 12A
  Arg1+ M2 macrophages: increased
[1]; 1 mg Zymosan i.p. followed by 10 mg/kg, all observed times, FIGS. 11A, 11B
  M1 macrophage levels: lower M1 macrophage levels
[1]; 1 mg Zymosan i.p. followed by 10 mg/kg, relative to control at 2 and 3 days
  CD206+ M2 macrophages: significantly increased
[1]; day 3, among all animal groups, FIG. 6A
  MFI for CD38+ on macrophages: lowest value
[1]; day 3, FIG. 5A
  total numbers of CD38+ macrophages: decreased
[1]; day 7, compared with disease only and vehicle animals, FIG. 3A
  number of neutrophils: less dramatic decrease
[1]
  inflammatory resolution (shift from M1 to M2): enhanced inflammatory resolution
[3]; after 4 hours, serum
  IL10: decrease
[3]; [7]
  IFNγ: decreased
  IL-1β: decreased
  MCP1-β: decreased
  TNF-α: decreased
[3]; plasma, at 3 and 7 days, in comparison with control groups, FIG. 7
  inflammatory biomarkers (MCP-1/CCL2): less inflammatory biomarkers
[4]
  CD80+ macrophages (M1), difference to control: significant different
